Reference: the NIST ThermoML archive (doi:10.1021/je9008969)

Assays:
[1] = cn = amount concentration of the nth substance listed, in mol/dm3; details: 298.15 K, 101 kPa, Liquid, Alternating current cell with electrodes
[2] = Liquid; Distillation

CCCC[n+]1ccccc1.[O-][Cl+3]([O-])([O-])[O-] [1-butylpyridinium perchlorate] + CC(=O)CC(C)C
[1]
Details	molar conductivity [S·m2/mol]
c1 = 0.0001223	0.00753
c1 = 0.0001384	0.00709
c1 = 0.0001791	0.00669
c1 = 0.0002332	0.00627
c1 = 0.0003126	0.00579
c1 = 0.0004224	0.00533
c1 = 0.0005585	0.0049
c1 = 0.0007544	0.00446
c1 = 0.001004	0.00408
c1 = 0.001345	0.00369
c1 = 0.001798	0.00335
c1 = 0.002419	0.00303
c1 = 0.00324	0.00274
c1 = 0.004348	0.00248
c1 = 0.005787	0.00225

CCCCCCCCCCCCCCCC[n+]1ccccc1.[O-][Cl+3]([O-])([O-])[O-] [1-hexadecylpyridinium perchlorate] + CC(=O)CC(C)C
[1]
Details	molar conductivity [S·m2/mol]
c1 = 9.238e-05	0.00688
c1 = 0.0001329	0.0064
c1 = 0.0001691	0.00608
c1 = 0.0002261	0.00565
c1 = 0.0002954	0.00527
c1 = 0.0004138	0.0048
c1 = 0.0005388	0.00444
c1 = 0.0007214	0.00406
c1 = 0.0009671	0.0037
c1 = 0.001303	0.00335
c1 = 0.001719	0.00306
c1 = 0.002318	0.00277
c1 = 0.00312	0.0025
c1 = 0.00417	0.00226
c1 = 0.005569	0.00205

CC(=O)CC(C)C [4-methylpentan-2-one]
Details	Normal boiling temperature [°C]
[2]	114.20

CCCCCC[N+](CC)(CC)CC.[O-][Cl+3]([O-])([O-])[O-] [N,N,N-triethyl-1-hexanaminium perchlorate] + CC(=O)CC(C)C
[1]
Details	molar conductivity [S·m2/mol]
c1 = 9.437e-05	0.00808
c1 = 0.0001362	0.00766
c1 = 0.0001739	0.00732
c1 = 0.0002195	0.00695
c1 = 0.0002862	0.00655
c1 = 0.0003746	0.00614
c1 = 0.0004856	0.00574
c1 = 0.0006345	0.00534
c1 = 0.000817	0.00498
c1 = 0.001056	0.00462
c1 = 0.001385	0.00426
c1 = 0.00181	0.00392
c1 = 0.002334	0.00362
c1 = 0.003049	0.00333
c1 = 0.003975	0.00307

CCCCCCC[N+](CCCCCCC)(CCCCCCC)CCCCCCC.[O-][Cl+3]([O-])([O-])[O-] [N,N,N-triheptylheptan-1-aminium perchlorate] + CC(=O)CC(C)C
[1]
Details	molar conductivity [S·m2/mol]
c1 = 7.179e-05	0.00765
c1 = 0.0001036	0.00729
c1 = 0.0001318	0.00704
c1 = 0.0001594	0.00683
c1 = 0.0002244	0.00639
c1 = 0.0002974	0.00603
c1 = 0.000405	0.00563
c1 = 0.0005438	0.00525
c1 = 0.0007266	0.00487
c1 = 0.0009775	0.0045
c1 = 0.001306	0.00414
c1 = 0.001751	0.0038
c1 = 0.002355	0.00348
c1 = 0.003149	0.00319
c1 = 0.004208	0.00292

CCCCCCCCCCCCCCCC[N+](C)(C)C.[O-][Cl+3]([O-])([O-])[O-] [N,N,N-trimethyl-1-hexadecanaminium perchlorate] + CC(=O)CC(C)C
[1]
Details	molar conductivity [S·m2/mol]
c1 = 0.0001172	0.00637
c1 = 0.0001513	0.006
c1 = 0.0002096	0.00553
c1 = 0.0002636	0.00519
c1 = 0.0003584	0.00476
c1 = 0.0005071	0.00427
c1 = 0.0006588	0.00394
c1 = 0.0008706	0.00359
c1 = 0.001168	0.00326
c1 = 0.001547	0.00295
c1 = 0.002106	0.00265
c1 = 0.002797	0.0024
c1 = 0.00376	0.00216
c1 = 0.005012	0.00194
c1 = 0.006683	0.00175
